Assays:
[1] = system: HCV sub-genomic replicon (1377/NS3-3') in HuH-7 hepatoma cells (GS4.3); assay: Quantitation by ELISA of NPTII in the HCV sub-genomic replicon, GS4.3; type: cell-based, hepatitis C virus (HCV); details: Hepatitis C virus, Huh-7; GS4.3 cells, 72 h incubation, NPTII ELISA; read-out: Replicon EC50
Description: The HCV sub-genomic replicon (1377/NS3-3′, accession No. AJ242652), stably maintained in HuH-7 hepatoma cells, was created by Lohmann et al. Science 285: 110-113 (1999). The replicon-containing cell culture, designated GS4.3, was obtained from Dr. Christoph Seeger of the Institute for Cancer Research, Fox Chase Cancer Center, Philadelphia, Pa.
GS4.3 cells were maintained at 37° C., 5% CO2, in DMEM (Gibco 11965-092) supplemented with L-glutamine 200 mM (100×) (Gibco25030-081), non-essential amino acids (NEAA) (Biowhittaker 13-114E), heat-inactivated (HI) Fetal Bovine Serum (FBS) (Hyclone SH3007.03) and 750 μg/mL geneticin (G418)(Gibco 10131-035). Cells were sub-divided 1:3 or 4 every 2-3 days.
24 h prior to the assay, GS4.3 cells were collected, counted, and plated in 96-well plates (Costar 3585) at 7500 cells/well in 100 μL standard maintenance medium (above) and incubated in the conditions above. To initiate the assay, culture medium was removed, cells were washed once with PBS (Gibco 10010-023) and 90 μl Assay Medium (DMEM, L-glutamine, NEAA, 10% HI FBS, no G418) was added. Inhibitors were made as a 10× stock in Assay Medium, (3-fold dilutions from 10 μM to 56 pM final concentration, final DMSO concentration 1%), 10 μL were added to duplicate wells, plates were rocked to mix, and incubated as above for 72 h.
An NPTII Elisa kit was obtained from AGDIA, Inc. (Compound direct ELISA test system for Neomycin Phosphotransferase II, PSP 73000/4800). Manufacturer's instructions were followed, with some modifications. 10×PEB-1 lysis buffer was made up to include 500 μM PMSF (Sigma P7626, 50 mM stock in isopropanol). After 72 h incubation, cells were washed once with PBS and 150 μL PEB-1 with PMSF was added per well. Plates were agitated vigorously for 15 minutes, room temperature, then frozen at −70° C. Plates were thawed, lysates were mixed thoroughly, and 100 μl were applied to an NPTII Elisa plate. A standard curve was made. Lysate from DMSO-treated control cells was pooled, serially diluted with PEB-1 with PMSF, and applied to duplicate wells of the ELISA plate, in a range of initial lysate amount of 150 μL-2.5 μL. In addition, 100 μL buffer alone was applied in duplicate as a blank. Plates were sealed and gently agitated at room temperature for 2 h. Following capture incubation, the plates were washed 5×300 μL with PBS-T (0.5% Tween-20, PBS-T was supplied in the ELISA kit). For detection, a 1× dilution of enzyme conjugate diluent MRS-2 (5×) was made in PBS-T, into which 1:100 dilutions of enzyme conjugates A and B were added, as per instructions. Plates were resealed, and incubated with agitation, covered, room temperature, for 2 h. The washing was then repeated and 100 μL of room temperature TMB substrate was added. After approximately 30 minutes incubation (room temperature, agitation, covered), the reaction was stopped with 50 μL 3M sulfuric acid. Plates were read at 450 nm on a Molecular Devices Versamax plate reader.
Inhibitor effect was expressed as a percentage of DMSO-treated control signal, and inhibition curves were calculated using a 4-parameter equation: y=A+((B−A)/(1+((C/x)^D))), where C is half-maximal activity or EC50.

[2] = molecular target: T1, NS3/NS4A-2 (full-length HCV NS3 protease complexed with NS4A-2) (Hepatitis C virus genotype 1a, UniProt P27958); assay: NS3 inhibition assay (NS3-NS4 protease assay); type: biochemical; details: recombinant full-length NS3/NS4A-2, RETS1 substrate, kinetic fluorescence read; read-out: NS3-NS4 IC50
T1 construct: Recombinant E. coli or Baculovirus full-length NS3; host or cells: E. coli or baculovirus (insect cells)
T1 sequence (P27958 1027-1657, one chain of several): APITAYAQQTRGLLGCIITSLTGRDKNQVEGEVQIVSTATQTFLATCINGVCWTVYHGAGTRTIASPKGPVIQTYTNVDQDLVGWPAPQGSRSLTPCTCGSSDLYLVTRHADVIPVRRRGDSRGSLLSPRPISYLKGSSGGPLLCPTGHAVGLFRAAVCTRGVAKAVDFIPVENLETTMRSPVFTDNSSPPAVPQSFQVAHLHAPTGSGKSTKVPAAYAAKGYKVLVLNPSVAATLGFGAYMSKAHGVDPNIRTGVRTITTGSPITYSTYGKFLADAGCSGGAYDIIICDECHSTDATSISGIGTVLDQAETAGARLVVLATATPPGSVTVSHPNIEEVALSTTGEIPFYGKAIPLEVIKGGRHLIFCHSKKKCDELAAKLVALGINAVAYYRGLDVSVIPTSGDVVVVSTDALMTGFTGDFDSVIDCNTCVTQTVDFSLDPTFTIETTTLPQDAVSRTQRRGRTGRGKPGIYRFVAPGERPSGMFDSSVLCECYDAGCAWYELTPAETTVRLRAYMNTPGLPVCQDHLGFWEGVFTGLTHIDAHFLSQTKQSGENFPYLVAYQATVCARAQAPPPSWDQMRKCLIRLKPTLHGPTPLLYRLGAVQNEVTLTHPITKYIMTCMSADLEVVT
Description: Recombinant E. coli or Baculovirus full-length NS3 was diluted to 3.33 μM with assay buffer and transferred material to an eppendorf tube and place in water bath in 4° C. refrigerator. The appropriate amount of NS4A-2 to 8.3 mM in assay buffer was added to equal the volume of NS3 in step 2.1.1 (conversion factor −3.8 mg/272 μL assay buffer). The material was transferred to an eppendorf tube and place in water bath in 4° C. refrigerator.
After equilibration to 4° C., equal volumes of NS3 and NS4A-2 solutions were combined in an eppendorf tube, mix gently with a manual pipettor, and incubate mixture for 15 minutes in the 4° C. water bath. Final concentrations in the mixture are 1.67 μM NS3, 4.15 mM NS4A-2 (2485-fold molar excess NS4A-2).
After 15 minutes at 4° C., the NS3/NS4A-2 eppendorf tube was removed and place it in a room temperature water bath for 10 minutes. NS3/NS4A-2 was aliquoted at appropriate volumes and store at −80° C. (E. coli NS3 run at 2 nM in assay, aliquot at 25 μL. BV NS3 run at 3 nM in assay, aliquot at 30 μL).
Sample compounds were dissolved to 10 mM in DMSO then diluted to 2.5 mM (1:4) in DMSO. Typically, compounds were added to an assay plate at 2.5 mM concentration, yielding upon dilution a starting concentration of 50 microM in the assay inhibition curve. Compounds were serial diluted in assay buffer to provide test solutions at lower concentrations.
The E. coli. NS3/NS4A-2 was diluted to 4 nM NS3 (1:417.5 of 1.67 μM stock−18 μL1.67 μM stock+7497 μL assay buffer). The BV NS3/NS4A-2 was diluted to 6 nM NS3 (1:278.3 of 1.67 μM stock−24 μL1.67 μM stock+6655 μL assay buffer). Using the manual multichannel pipettor, careful not to introduce bubbles into the plate, add 50 μL assay buffer to wells A01-H01 of a black Costar 96-well polypropylene storage plate.
Using the manual multichannel pipettor, careful not to introduce bubbles into the plate, add 50 μL of diluted NS3/NS4A-2 from step 2.2.6 to wells A02-H12 of plate in step 2.2.7. Using the manual multichannel pipettor, careful not to introduce bubbles into the plate, transfer 25 μL of the wells in drug dilution plate in step 2.2.5 to corresponding wells in assay plate in step 2.2.8. Change tips on multichannel pipettor for each row of compounds transferred. Using the manual multichannel pipettor, careful not to introduce bubbles into the plate, mix the wells from the assay plate in step 2.2.9 by aspirating and dispensing 35 μL of the 75 μL in each well five times. Change tips on multichannel pipettor for each row of wells mixed. Cover plate with a polystyrene plate lid and pre-incubate the plate from step 2.2.10 containing NS3 protease and sample compounds 10 minutes at room temperature. While plate from step 2.2.11 is pre-incubating, dilute RETS1 substrate in a 15 mL polypropylene centrifuge tube. Dilute RETS1 substrate to 8 μM (1:80.75 of 646 μM stock−65 μL 646 μM stock+5184 μL assay buffer).
After the plate in step is done pre-incubating, and using the manual multichannel, add 25 μL of substrate to all wells on the plate. Quickly mix the plate as in step 2.2.10, mixing 65 μL of the 100 μL in the wells.
Read the plate in kinetic mode on the Molecular Devices SpectraMax Gemini XS plate reader. Reader settings: Read time: 30 minutes, Interval: 36 seconds, Reads: 51, Excitation λ: 335 nm, Emission λ: 495 nm, cutoff: 475 nm, Automix: off, Calibrate: once, PMT: high, Reads/well: 6, Vmax pts: 21 or 28/51 depending on length of linearity of reaction
IC50s are determined using a four parameter curve fit equation, and converted to Ki's using the following Km's: • Full-length E. coli NS3−2.03 μM • Full-length BV NS3−1.74 μM • where Ki=IC50/(1+[S]/Km)) • Quantitation by ELISA of the Selectable Marker Protein, Neomycin Phosphotransferase II (NPTII) in the HCV Sub-Genomic Replicon, GS4.3

Row | Compound | EC50 [1] [nM] | IC50 [2] [nM]
1 | C=C[C@@H]1C[C@]1(NC(=O)C1Cc2cc(Oc3cccc(Cl)c3)ccc2CN1C(=O)[C@@H](Nc1ccc(F)cc1)C(C)(C)C)C(=O)NS(=O)(=O)C1CC1 (stereo partly drawn) [Compound 10, 6-(3-chlorophenoxy)-N-((1R,2S)-1-(cyclopropylsulfonylcarbamoyl)-2-vinylcyclopropyl)-2-((S)-2-(4-fluorophenylamino)-3,3-dimethylbutanoyl)-1,2,3,4-tetrahydroisoquinoline-3-carboxamide] | 1000 to 10000 | < 100
2 | C=C[C@@H]1C[C@]1(NC(=O)[C@@H]1Cc2cc(Oc3cccc(Cl)c3)ccc2CN1C(=O)[C@@H](Nc1ccc(F)cc1)C(C)(C)C)C(=O)NS(=O)(=O)C1CC1 [Compound 11, (S)-6-(3-chlorophenoxy)-N-((1R,2S)-1-(cyclopropylsulfonylcarbamoyl)-2-vinylcyclopropyl)-2-((S)-2-(4-fluorophenylamino)-3,3-dimethylbutanoyl)-1,2,3,4-tetrahydroisoquinoline-3-carboxamide] | 10000 to 50000 | < 100
3 | C=C[C@@H]1C[C@]1(NC(=O)[C@H]1Cc2cc(Oc3cccc(Cl)c3)ccc2CN1C(=O)[C@@H](Nc1ccc(F)cc1)C(C)(C)C)C(=O)NS(=O)(=O)C1CC1 [Compound 12, (R)-6-(3-chlorophenoxy)-N-((1R,2S)-1-(cyclopropylsulfonylcarbamoyl)-2-vinylcyclopropyl)-2-((S)-2-(4-fluorophenylamino)-3,3-dimethylbutanoyl)-1,2,3,4-tetrahydroisoquinoline-3-carboxamide] | 10000 to 50000 | 100 to 1000
4 | C=C[C@@H]1C[C@]1(NC(=O)C1Cc2cc(Oc3cccc(Cl)c3)ccc2CN1C(=O)[C@@H](Nc1cccc(C(C)(C)C)c1)C(C)C)C(=O)NS(=O)(=O)C1CC1 (stereo partly drawn) [Compound 13, 2-((S)-2-(3-tert-butylphenylamino)-3-methylbutanoyl)-6-(3-chlorophenoxy)-N-((1R,2S)-1-(cyclopropylsulfonylcarbamoyl)-2-vinylcyclopropyl)-1,2,3,4-tetrahydroisoquinoline-3-carboxamide] | 10000 to 50000 | < 100
5 | C=C[C@@H]1C[C@]1(NC(=O)[C@@H]1C[C@@H](OC(=O)N2Cc3cccc(F)c3C2)CN1C(=O)[C@@H](Nc1ccc(F)cc1)C(C)C)C(=O)NS(=O)(=O)C1CC1 [Compound 33, (3R,5S)-5-((1R,2S)-1-(cyclopropylsulfonylcarbamoyl)-2-vinylcyclopropylcarbamoyl)-1-((S)-2-(4-fluorophenylamino)-3-methylbutanoyl)pyrrolidin-3-yl 4-fluoroisoindoline-2-carboxylate] | 100 to 1000 | < 100
6 | C=C[C@@H]1C[C@]1(NC(=O)[C@@H]1C[C@@H](OC(=O)N2Cc3cccc(Cl)c3C2)CN1C(=O)[C@@H](Nc1ccc(F)cc1)C(C)C)C(=O)NS(=O)(=O)C1CC1 [Compound 34, [(3R,5S)-5-((1R,2S)-1-(cyclopropylsulfonylcarbamoyl)-2-vinylcyclopropylcarbamoyl)-1-((S)-2-(4-fluorophenylamino)-3-methylbutanoyl)pyrrolidin-3-yl]4-chloroisoindoline-2-carboxylate] | < 100 | < 100
7 | C=CCCCCC[C@H](Nc1ccc(F)cc1)C(=O)N1C[C@H](OC(=O)N2Cc3cccc(F)c3C2)C[C@H]1C(=O)N[C@]1(C(=O)NS(=O)(=O)C2CC2)C[C@H]1C=C [Compound 35, [(3R,5S)-5-((1R,2S)-1-(cyclopropylsulfonylcarbamoyl)-2-vinylcyclopropylcarbamoyl)-1-((S)-2-(4-fluorophenylamino)non-8-enoyl)pyrrolidin-3-yl]4-floroisoindoline-2-carboxylate] | 1000 to 10000 | < 100
8 | CC[C@@H]1C[C@]1(NC(=O)[C@@H]1C[C@@H](OC(=O)N2Cc3cccc(Cl)c3C2)CN1C(=O)[C@@H](Nc1cc(F)cc(C(F)(F)F)c1)C(C)(C)C)C(=O)NS(=O)(=O)C1CC1 [Compound 73, (3R,5S)-5-((1R,2R)-1-(cyclopropylsulfonylcarbamoyl)-2-ethylcyclopropylcarbamoyl)-1-((S)-2-(3-fluoro-5-(trifluoromethyl)phenylamino)-3,3-dimethylbutanoyl)pyrrolidin-3-yl 4-chloroisoindoline-2-carboxylate] |  | < 100
9 | CC[C@@H]1C[C@]1(NC(=O)[C@@H]1C[C@@H](OC(=O)N2Cc3cccc(Cl)c3C2)CN1C(=O)[C@@H](Nc1cc(F)cc(C(F)(F)F)c1)C(C)(C)C)C(=O)NS(=O)(=O)C1CC1 [Compound 77] | < 100 | 
10 | [(3R,5S)-5-(((1R,2R)-1-(Cyclopropylsulfonylcarbamoyl)-2-ethylcyclopropyl)carbamoyl)-1-((S)-2-(5-isopropylthiazol-2-ylamino)-3,3-dimethylbutanoyl)pyrrolidin-3-yl]4-chloroisoindoline-2-carboxylate [Compound 65] |  | < 100
